Test results published in patent publication EP0500953B1, “ANTINEOPLASTIC EFFECT POTENTIATOR AND ANTINEOPLASTIC AGENT” (TAIHO PHARMACEUTICAL COMPANY LIMITED, priority 1990, dated 1992).

How the values were obtained:
[1] = tested on: mouse colon cancer line COLON 26; assay: Tumor growth inhibition, subdermally transplanted COLON 26 tumor fragment in mice (Example 1); format: in vivo; settings: Dosage 20.0 mg/kg, orally once a day for 9 consecutive days, tumor weight on day 12
Procedure: (§1) A 2 mm-diameter fragment of mouse colon cancer line COLON 26 was subdermally transplanted at the back of male CDF1 mice. Beginning 24 hours after transplantation of the tumor fragment, a solution or suspension of tegafur-uracil combination drug, 5-fluorouracil and calcium folinate, the amounts of which are indicated below in Table 1, in 0.5% sodium calboxymethylcellulose (CMC) solution was administered orally once a day for 9 consecutive days. On day 12 after transplantation of the tumor fragment, the tumor was enucleated and weighed. From the ratio of the mean tumor weight in each treatment group to that in the control group, the tumor growth inhibition rate was calculated. On the other hand, the body weight of mice on the day of tumor fragment transplantation was subtracted from the body weight of mice exclusive of tumors on day 12 after transplantation and the difference was used as the index of drug-induced systemic toxicity. Furthermore, the stools passed by mice in each treatment group were examined daily and, in accordance with the method described in Japanese Journal of Cancer Research Vol. 81, 188-195 (1990), the stool property was rated on the following scale: -: normal stool (hard pellets with little moisture), ±: loose stool (normal form, moist and soft), +: loose stool (undefinable form, very moist and soft), ++: diarrheal stool (formless, watery).

[2] = Body weight change as index of drug-induced systemic toxicity, COLON 26-bearing mice (Example 1); format: in vivo, male CDF1 mice; settings: Dosage 20.0 mg/kg, orally once a day for 9 days, day 12 vs day of transplantation
Procedure: as §1

[3] = Stool property rating (digestive organ toxicity), COLON 26-bearing mice (Example 1); format: in vivo, male CDF1 mice; parameters: key: -: normal stool (hard pellets with little moisture); ±: loose stool (normal form, moist and soft); +: loose stool (undefinable form, very moist and soft); ++: diarrheal stool (formless, watery); settings: Dosage 20.0 mg/kg, orally once a day for 9 days
Procedure: as §1

SMILES: O=c1[nH]cc(F)c(=O)[nH]1 [5-Fluorouracil, 5-fluorouracil]
- Tumor Growth inhibition rate (%) ([1]; Folinic acid 0 mg/kg): 43%
- Tumor Growth inhibition rate (%) ([1]; Folinic acid 100 mg/kg): 56%
- Change in body weight (g) ([2]; Folinic acid 0 mg/kg): +1.7 g
- Change in body weight (g) ([2]; Folinic acid 100 mg/kg): +0.1 g
- Stool property ([3]; Folinic acid 0 mg/kg): ±
- Stool property ([3]; Folinic acid 100 mg/kg): ++
